# Results taken from patent US20070225335A1, “Pyrazole Derivatives for Treating Condit Ions Mediated by Activation of the Adeno Sine A2B or A3 Receptor” (priority 2004, published 2007).
# Molecular target: T1, human adenosine A2b receptor (Homo sapiens, UniProt P29275)
# T1 construct: expressed in transfected cells; host or cells: CHO (Chinese Hamster Ovary) cells co-transfected with the reporter plasmid pCRE-LUCI
# T1 sequence (P29275 1-332): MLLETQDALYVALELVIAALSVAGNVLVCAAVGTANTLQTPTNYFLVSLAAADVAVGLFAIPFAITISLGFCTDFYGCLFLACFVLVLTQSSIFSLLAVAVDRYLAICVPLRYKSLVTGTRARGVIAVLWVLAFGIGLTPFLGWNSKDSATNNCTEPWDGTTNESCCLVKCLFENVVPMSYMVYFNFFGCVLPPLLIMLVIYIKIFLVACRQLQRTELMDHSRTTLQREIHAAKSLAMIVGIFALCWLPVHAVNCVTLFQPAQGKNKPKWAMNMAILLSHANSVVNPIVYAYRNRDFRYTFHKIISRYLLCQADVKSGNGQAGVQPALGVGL
# Experiment: Adenosine A2b receptor reporter gene assay (luciferase, CHO-A2b cells, NECA agonist)
# Assay type: cell-based
# Conditions: CHO cells with pCRE-LUCI and human A2b receptor; shift of NECA concentration-response curve; antagonist at 100 nM or 1 μM; KB=[antagonist]/(concentration ratio−1)
# Method: Adenosine A2b Receptor Reporter Gene Assay a) Culturing of Chinese Hamster Ovary (CHO) A2b Cell Line
# CHO cells transfected with a Luciferase-expressing reporter plasmid (pCRE-LUCI) and with a plasmid carrying the human adenosine A2b receptor structural gene (pA2bRCV) are routinely cultured in Dulbecco's Modified Eagle Medium (DMEM)—supplemented with 10% v/v fetal calf serum (FCS), 2 mM L-glutamine, 0.4 mg/ml L-proline, 1 nM sodium selenite, 0.5 mg/ml Hygromycin B and 1 mg/ml Geneticin—at 37° C., 5% CO2 and 100% humidity. The cells are left to grow to confluence for 4-5 days. The cells obtained are passaged using trypsin/EDTA and split at a ratio of 1 in 5. […]
# b) Preparation of cells for assay […]
# 5′-N-ethylcarboxamidoadenosine (NECA), an adenosine A2b agonist, is prepared as a […] solution in DMSO and then diluted to 100 μM with Assay Buffer. […] 100 μl of Steady-Glo, a Luciferase assay substrate from Promega, is added to all wells to lyse the cells and generate luminescence in proportion to the amount of Lucifrease produced. The plates are left for a minimum of 5 minutes before being read on the luminescence program of a Topcount NXT microplate scintillation counter (ex Packard). […]
row,Kb [nM],SMILES
1,139,"N#Cc1ccc(NC(=O)c2cnn(-c3cccc(F)c3)c2-c2ccncc2)cc1 [Example 4, 1-(3-Fluoro-phenyl)-5-pyridin-4-yl-1H-pyrazole4-carboxylic acid (4-cyano-phenyl)-amide]"
2,188,"O=C(Nc1cccnc1)c1cc(-c2ccncc2)n(-c2cccc(F)c2)n1 [Example 33, 1-(3-Fluoro-phenyl)-5-pyridin-4-yl-1H-pyrazole-3-carboxylic acid pyridin-3-ylamide]"
